Assay results published in patent publication US12391737B2, “Soluble NPY2 receptor agonists” (Boehringer Ingelheim International GmbH, priority 2020, dated 2025).

How the values were obtained:
[1] = biological target: T1, Human Neuropeptide Y2 Receptor (Homo sapiens, UniProt P49146); experiment: Radioligand binding competition assay (RLB); conditions: Table 3, 125I-PYY(1-36) competition; read-out: Ki
T1 construct: purchased CHEMICON HTS066M
T1 sequence (P49146 1-381): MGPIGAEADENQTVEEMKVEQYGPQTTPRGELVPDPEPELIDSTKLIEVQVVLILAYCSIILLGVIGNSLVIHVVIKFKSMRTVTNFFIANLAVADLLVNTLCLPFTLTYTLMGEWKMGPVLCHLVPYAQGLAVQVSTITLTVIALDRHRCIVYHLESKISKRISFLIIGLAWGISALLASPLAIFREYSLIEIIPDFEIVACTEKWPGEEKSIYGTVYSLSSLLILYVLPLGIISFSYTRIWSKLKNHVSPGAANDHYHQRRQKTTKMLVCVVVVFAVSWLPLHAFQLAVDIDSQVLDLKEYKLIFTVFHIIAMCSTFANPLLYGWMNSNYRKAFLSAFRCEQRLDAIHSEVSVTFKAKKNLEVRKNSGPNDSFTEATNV
Method in brief: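 Competition binding used membranes expressing the receptor (0.5 μg protein/well) in 50 mM HEPES, 5 mM MgCl2, 1 mM CaCl2, pH 7.4 with 0.2% ovalbumin, incubated 2 h at room temperature with shaking. Bound radioligand was collected by filtration onto PEI-soaked GF/C filters and counted; IC50 from nonlinear sigmoidal fits.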

[2] = biological target: T2, human NPY5 receptor (hY5R) (Homo sapiens, UniProt Q15761); experiment: HTRF cAMP Gi assay, hY5R
T2 sequence (Q15761 1-445): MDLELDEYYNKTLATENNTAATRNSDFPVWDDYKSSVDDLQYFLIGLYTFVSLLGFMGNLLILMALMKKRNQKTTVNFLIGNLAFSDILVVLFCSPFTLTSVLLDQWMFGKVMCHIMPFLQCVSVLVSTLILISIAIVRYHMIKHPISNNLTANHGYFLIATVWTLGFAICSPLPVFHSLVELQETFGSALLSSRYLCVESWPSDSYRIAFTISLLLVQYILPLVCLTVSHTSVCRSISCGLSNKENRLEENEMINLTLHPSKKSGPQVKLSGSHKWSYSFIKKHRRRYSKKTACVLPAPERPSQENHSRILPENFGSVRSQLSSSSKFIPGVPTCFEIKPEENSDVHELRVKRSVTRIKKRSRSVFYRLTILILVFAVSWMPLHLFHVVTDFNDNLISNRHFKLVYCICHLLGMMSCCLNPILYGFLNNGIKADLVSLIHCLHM

[3] = Solubility determination; conditions: for Sol6: pH 6; for Sol7: pH 7
Method in brief: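 First, TFA-salt peptide was added to 0.1 M sodium diphosphate (pH 6.4 or 7.0) to 10 mg/ml and shaken 2 h at room temperature. Next, insoluble material was filtered off. Finally, filtrate and control, each 1 mg/ml in 50% acetonitrile, were compared by reversed-phase chromatography.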

[4] = biological target: T3, human NPY2 receptor (hY2R) (Homo sapiens, UniProt P49146); experiment: HTRF cAMP Gi assay, hY2R
T3 sequence (P49146 1-381): T1 sequence (P49146 1-381)
Text: The Homogenous Time Resolved fluorescence (HTRF) technology optimized for Gi coupled receptors has thoroughly been described in Cisbio cAMP Gi kit manual. Briefly, the production of intracellular cAMP will generate a competition between unlabeled cAMP and exogenously added d2-cAMP for anti-cAMP antibodies conjugated to cryptate. CHO-K1 cells stably expressing the human NPY1, NPY2, NPY4 and NPY5 receptors were used with the cells brought to life from a frozen stock immediately before assay performance. 2000 cells per well were applied for all four NPY receptor subtype assays. A 384-well format was used applying a total volume of 20 μl using 5 μl cells, 2.5 μl peptide agonist, 2.5 μl forskolin and 5 μl of each of the fluorophores. […] Concentration-response evaluation of compounds was performed with 11 concentrations of agonist peptides (covering 3 decades). EC50 values were calculated by nonlinear regression using sigmoid concentration-response with variable slope.

Compound | Ki [1] | EC50 [2] | Sol6 [3] | Sol7 [3] | EC50 [4]
CC(C)CC(=O)N[C@@H](C)C(=O)N1CCC[C@H]1C(=O)N[C@@H](CCC(=O)O)C(=O)N[C@@H](CCCCNC(=O)CCCCCNC(=O)CC[C@H](NC(=O)CCCCCCCCCCCCCCCCC(=O)O)C(=O)O)C(=O)N1CCC[C@H]1C(=O)N1CCC[C@H]1C(=O)N[C@@H](CCC(=O)O)C(=O)N[C@@H](CC(=O)O)C(=O)N[C@@H](C)C(=O)N[C@@H](CO)C(=O)N1CCC[C@H]1C(=O)N[C@@H](CCC(=O)O)C(=O)N[C@@H](CCC(=O)O)C(=O)N[C@@H](CC(C)C)C(=O)N[C@@H](CCC(N)=O)C(=O)N[C@@H](CCCNC(=N)N)C(=O)N[C@@H](Cc1ccc(O)cc1)C(=O)N[C@@H](Cc1ccc(O)cc1)C(=O)N[C@H](C(=O)N[C@@H](CO)C(=O)N[C@@H](CC(C)C)C(=O)N[C@@H](CCCNC(=N)N)C(=O)N[C@@H](Cc1c[nH]cn1)C(=O)N[C@@H](Cc1ccc(O)cc1)C(=O)N[C@@H](Cc1ccc(O)cc1)C(=O)N[C@@H](CC(N)=O)C(=O)N[C@@H](Cc1c[nH]c2ccccc12)C(=O)N[C@@H](CC(C)C)C(=O)N[C@H](C(=O)N[C@@H](CCCNC(=N)N)C(=O)N[C@@H](CCC(N)=O)C(=O)N[C@@H](CCCNC(=N)N)C(=O)N[C@@H](Cc1ccc(O)cc1)C(N)=O)[C@@H](C)O)C(C)C [Compound 14, N{alpha-4}-(3-methylbutanoyl)-N{epsilon-7}-(6-[(4S)-4-carboxy-4-(17-carboxyheptadecanamido)butanamido]hexanoyl)-[4A,7K,9P,18Q,22V,28Y,30W,31L]-hPYY(4-36)] | 1.28 nM | > 5000 nM | 9.3 mg/mL | 8.4 mg/mL | 0.086 nM
CC(C)CC(=O)N[C@@H](C)C(=O)N1CCC[C@H]1C(=O)N[C@@H](CCC(=O)O)C(=O)N[C@@H](CCCCNC(=O)CCCCCNC(=O)CC[C@H](NC(=O)CCCCCCCCCCCCCCCCC(=O)O)C(=O)O)C(=O)N1CCC[C@H]1C(=O)N[C@@H](CCC(=O)O)C(=O)N[C@@H](C)C(=O)N[C@@H](CC(=O)O)C(=O)N[C@@H](C)C(=O)N[C@@H](CCC(=O)O)C(=O)N1CCC[C@H]1C(=O)N[C@@H](CCC(=O)O)C(=O)N[C@@H](CCC(=O)O)C(=O)N[C@@H](CC(C)C)C(=O)N[C@@H](CCC(N)=O)C(=O)N[C@@H](CCCNC(=N)N)C(=O)N[C@@H](Cc1ccc(O)cc1)C(=O)N[C@@H](Cc1ccc(O)cc1)C(=O)N[C@H](C(=O)N[C@@H](CO)C(=O)N[C@@H](CC(C)C)C(=O)N[C@@H](CCCNC(=N)N)C(=O)N[C@@H](Cc1c[nH]cn1)C(=O)N[C@@H](Cc1ccc(O)cc1)C(=O)N[C@@H](Cc1ccc(O)cc1)C(=O)N[C@@H](CC(N)=O)C(=O)N[C@@H](Cc1c[nH]c2ccccc12)C(=O)N[C@@H](CC(C)C)C(=O)N[C@H](C(=O)N[C@@H](CCCNC(=N)N)C(=O)N[C@@H](CCC(N)=O)C(=O)N[C@@H](CCCNC(=N)N)C(=O)N[C@@H](Cc1ccc(O)cc1)C(N)=O)[C@@H](C)O)C(C)C [Compound 72, N{alpha-4}-(3-methylbutanoyl)-N{epsilon-7}-(6-[(4S)-4-carboxy-4-(17-carboxyheptadecanamido)butanamido]hexanoyl)-[4A,7K,9E,10A,13E,18Q,22V,28Y,30W,31L]-hPYY(4-36)] | 2.79 nM | > 5000 nM | 9.0 mg/mL | 9.2 mg/mL | 0.197 nM
CC(C)CC(=O)N[C@@H](C)C(=O)N1CCC[C@H]1C(=O)N[C@@H](CCC(=O)O)C(=O)N[C@@H](CCCCNC(=O)CCCCCNC(=O)CC[C@H](NC(=O)CCCCCCCCCCCCCCCCC(=O)O)C(=O)O)C(=O)N1CCC[C@H]1C(=O)N[C@@H](CCC(=O)O)C(=O)N[C@@H](CCC(=O)O)C(=O)N[C@@H](CCC(=O)O)C(=O)N[C@@H](C)C(=O)N[C@H](C(=O)N1CCC[C@H]1C(=O)N[C@@H](CCC(=O)O)C(=O)N[C@@H](CCC(=O)O)C(=O)N[C@@H](CC(C)C)C(=O)N[C@@H](CCC(N)=O)C(=O)N[C@@H](CCCNC(=N)N)C(=O)N[C@@H](Cc1ccc(O)cc1)C(=O)N[C@@H](Cc1ccc(O)cc1)C(=O)N[C@H](C(=O)N[C@@H](CO)C(=O)N[C@@H](CC(C)C)C(=O)N[C@@H](CCCNC(=N)N)C(=O)N[C@@H](Cc1c[nH]cn1)C(=O)N[C@@H](Cc1ccc(O)cc1)C(=O)N[C@@H](Cc1ccc(O)cc1)C(=O)N[C@@H](CC(N)=O)C(=O)N[C@@H](Cc1c[nH]c2ccccc12)C(=O)N[C@@H](CC(C)C)C(=O)N[C@H](C(=O)N[C@@H](CCCNC(=N)N)C(=O)N[C@@H](CCC(N)=O)C(=O)N[C@@H](CCCNC(=N)N)C(=O)N[C@@H](Cc1ccc(O)cc1)C(N)=O)[C@@H](C)O)C(C)C)[C@@H](C)O [Compound 146, N{alpha-4}-(3-methylbutanoyl)-N{epsilon-7}-(6-[(4S)-4-carboxy-4-(17-carboxyheptadecanamido)butanamido]hexanoyl)-[4A,7K,9E,11E,13T,18Q,22V,28Y,30W,31L]-hPYY(4-36)] | 8.93 nM | > 5000 nM | 9.8 mg/mL | 9.6 mg/mL | 0.13 nM
CC(C)CC(=O)N[C@@H](C)C(=O)N1CCC[C@H]1C(=O)N[C@@H](CCC(=O)O)C(=O)N[C@@H](CCCCNC(=O)CCCCCNC(=O)CC[C@H](NC(=O)CCCCCCCCCCCCCCCCC(=O)O)C(=O)O)C(=O)N1CCC[C@H]1C(=O)N[C@@H](CCC(=O)O)C(=O)N[C@@H](C)C(=O)N[C@@H](CC(=O)O)C(=O)N[C@@H](C)C(=O)N[C@@H](CO)C(=O)N1CCC[C@H]1C(=O)N[C@@H](CCC(=O)O)C(=O)N[C@@H](CCC(=O)O)C(=O)N[C@@H](CC(C)C)C(=O)N[C@@H](CCC(N)=O)C(=O)N[C@@H](CCCNC(=N)N)C(=O)N[C@@H](Cc1ccc(O)cc1)C(=O)N[C@@H](Cc1ccc(O)cc1)C(=O)N[C@H](C(=O)N[C@@H](CO)C(=O)N[C@@H](CC(C)C)C(=O)N[C@@H](CCCNC(=N)N)C(=O)N[C@@H](Cc1c[nH]cn1)C(=O)N[C@@H](Cc1ccc(O)cc1)C(=O)N[C@@H](Cc1ccc(O)cc1)C(=O)N[C@@H](CC(N)=O)C(=O)N[C@@H](Cc1c[nH]c2ccccc12)C(=O)N[C@@H](CC(C)C)C(=O)N[C@H](C(=O)N[C@@H](CCCNC(=N)N)C(=O)N[C@@H](CCC(N)=O)C(=O)N[C@@H](CCCNC(=N)N)C(=O)N[C@@H](Cc1ccc(O)cc1)C(N)=O)[C@@H](C)O)C(C)C [Compound 196, N{alpha-4}-(3-methylbutanoyl)-N{epsilon-7}-(6-[(4S)-4-carboxy-4-(17-carboxyheptadecanamido)butanamido]hexanoyl)-[4A,7K,9E,10A,18Q,22V,28Y,30W,31L]-hPYY(4-36)] | 3.57 nM | > 5000 nM | 8.4 mg/mL | 9.8 mg/mL | 0.086 nM
